Assay [1] deals with DIO male mice. The assay is described as follows: Oral glucose tolerance test, PATAD, metformin or both. As to conditions: PATAD injection, metformin daily oral gavage.
The subject of assay [2] is albumin. Put plainly: Plasma free albumin determination. In kind it is in vivo, mouse. As to conditions: 3 months after PATAD injection, N=5. The procedure:
Lipids are transported bound to albumin and therefore plasma content of free albumin was measured as a readout of the effect of PATAD stapled peptide sequence A on circulating lipid profile 3 months after PATAD injection. N=5 mice per group.
A decreased circulating free albumin concentration has been observed when the mice were treated with PATAD stapled peptide sequence A indicating an increase in the levels of circulating lipids (FIG. 6).
(§1) For GLP-1 measurement, a commercially available kit was used. RayBio Human/Mouse/Rat GLP-1 Enzyme Immunoassay Kit, EIA-GLP1, RayBiotech were used with the indicated procedures from the manufacturer. For the plasma albumin level determination, a commercially available kit was used.

Assay [3] has as its system ALT (Alanine Aminotransferase). The assay is described as follows: Plasma ALT ELISA. In kind it is in vivo, mouse. As to conditions: 3 months after a single subcutaneous injection, n=4. The method, then:
(§2) Mean values of both AST and ALT measured by ELISA approach in plasma of mice with the indicated treatment. n=4 samples per group.
(§3) Mice presented in FIG. 1 were euthanized and their plasma and organs were sampled for analysis. […] Cryosection of the livers were then stained with Adipored and DAPI to detect the level of lipid droplets. […] Hepatic function is assessed by two liver related strong biomarkers namely (AST (Aspartate Aminotransferase) and ALT (Alanine Aminotransferase)), whose levels increase proportionately with liver damage.
(§4) Plasma samples from the indicated mice were used to determine plasma content of either AST (aspartate aminotransferase) or […] (alanine aminotransferase) both robust indicators of liver damage were measured using commercially purchased ELISA kits. These parameters were determined according to manufacturer's procedure.
SEA207Mu (96 Tests): Enzyme-linked Immunosorbent Assay Kit For Alanine Aminotransferase (ALT), Cloud Clone Corp
Background: ELISA stands for enzyme-linked immunosorbent assay.

Assay [4] has as its system AST (Aspartate Aminotransferase). Put plainly: Plasma AST ELISA. In kind it is in vivo, mouse. As to conditions: 3 months after a single subcutaneous injection, n=4. The procedure: as §2, §3, §4
SEB214Mu (96 Tests): Enzyme-linked Immunosorbent Assay Kit For Aspartate Aminotransferase (AST), Cloud Clone Corp

Assay [5] concerns FATP2 (Fatty acid transport protein 2). The assay is described as follows: q-PCR expression of fatty acid transporters in adipose tissue. As to conditions: high fat/high glucose diet male mice; 11 days post single injection; GAPDH reference gene. Type of assay: in vivo, mouse. The text has this: n=4 animals per group, GAPDH was used as reference gene. There are 6 isoforms of FATP (FATP1-6 also known as SLC27A1-SLC27A6).
As PATAD subcutaneous injection relates to restoration of glucose absorption in the adipose tissue, the inventors measured the expression levels of all 6 isoforms for the FATPs (1-6) (Fatty acid transport protein 1-6) and the 4 isoforms of the FFAR (Free Fatty Acid Receptor) to assess any effect on these genes.
All peptides were initially dissolved in DMSO and then diluted in sterile saline solution at a concentration of 10 ng/μL. 2.5 μL of each peptide (stapled or scrambled) were mixed and then injected directly in the subcutaneaous adipose tissue in each mouse. […]
Total RNA was prepared from the different tissues and cells using a RiboPure™ kit (Catalog #: AM1924; Ambion) followed by a DNAse treatment with the TURBO DNA-Free™ (Catalog #: AM 1907; Ambion). RNA integrity was assessed by gel electrophoresis and RNA concentration by Eppendorf Biophotometer Plus with the Hellma® Tray Cell (Catalog #: 105.810-uvs; Hellma). […] Real-time quantitative polymerase chain reaction amplification was performed in a BioRad CFX96™ Real-Time System using the iQ™ SYBR® Green Supermix (Catalog #: 170-8886; BioRAd) and primer sets optimized for tested targets for SYBR Green-based real-time PCR for the real-time PCR. […]

Assay [6] concerns GLP-1. Put plainly: Circulating GLP-1 enzyme immunoassay. Type of assay: in vivo, mouse. As to conditions: plasma; 11 days post single injection. The procedure:
FIG. 4: PATAD stapled peptide sequence A reduces FATP2 expression level in the adipose tissue and increases GLP-1 circulating levels • (A)4 month-old male mice fed with a high fat/high glucose diet were used in this set of experiment.
Mice were injected with a single dose of either scramble peptide or PATAD stapled peptide sequence A. 11 days post injection, the mice were euthanized, and plasma was obtained and used for determination of circulating GLP1 from mice with the indicated treatment.
as §1

“Also recorded” adds a separate entry of the source.

Regarding `CN(C)C(=N)N=C(N)N` [metformin], in assay [1], the “onset of the effect on the GTT” value is on record as “delayed by one week”.
Regarding “VE CTM-[2-(4-pentenyl) alanine]-EK RVL A-[2-(4-pentenyl)alanine]-L DKP PFL TQL HS [PATAD stapled peptide sequence A]”, in assay [2], the “circulating free albumin concentration” value was “decreased”. The “circulating ALT level” value in assay [3] is reported as “effective in reducing”. Moreover, the “circulating AST level” value in assay [4] is reported as “effective in reducing”. The “FATP2 expression level in the adipose tissue” value in assay [5] is reported as “decreased; also recorded: reduces”. The “circulating GLP-1 concentration” value in assay [6] was “restored high circulating levels; also recorded: restore GLP1 circulating levels back to lean controls”.

The values are drawn from patent publication US20200368314A1, “PEPTIDES FOR TREATMENT AND PREVENTION OF NONALCOHOLIC FATTY LIVER DISEASE” (UNIVERSITE DE STRASBOURG, priority 2017, published 2020).
